Reference: the Kinase Knowledgebase extract (Sharma et al. 2016)

Key:
MAPK14 (Balb/c mice) = test: Inhibition of TNF-alpha Release in Balb/c Mice; settings: dose or concentration not given here
MAPK14 (human) = MAPK14 (human) (UniProt Q16539); test: Inhibition of TNF-alpha Release from PBMC
Sequence of MAPK14 (human) (Q16539 whole entry, looked up): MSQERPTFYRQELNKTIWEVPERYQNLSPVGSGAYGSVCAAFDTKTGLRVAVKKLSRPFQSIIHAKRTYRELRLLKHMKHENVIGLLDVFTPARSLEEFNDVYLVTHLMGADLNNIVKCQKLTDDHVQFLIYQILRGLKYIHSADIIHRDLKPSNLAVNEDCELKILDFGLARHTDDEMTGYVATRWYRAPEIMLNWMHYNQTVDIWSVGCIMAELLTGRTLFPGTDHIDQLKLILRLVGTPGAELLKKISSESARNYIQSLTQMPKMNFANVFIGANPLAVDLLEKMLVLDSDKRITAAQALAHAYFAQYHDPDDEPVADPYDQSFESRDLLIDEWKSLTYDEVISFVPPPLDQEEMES

| SMILES | IC50 (MAPK14 (human)) [µM] | inhibition (MAPK14 (Balb/c mice)) [%] |
| --- | --- | --- |
| Nc1ccn2c(-c3ccncn3)c(-c3cccc(C(F)(F)F)c3)nc2n1 | 0.278 | 85 |
| Nc1ccn2c(-c3ccncn3)c(-c3ccc(F)cc3)nc2n1 | 0.199 | 91 |
| CSc1nccc(-c2c(-c3ccccc3)nc3nc(N)ccn23)n1 | – | 23 |
| CS(=O)(=O)c1nccc(-c2c(-c3ccccc3)nc3nc(N)ccn23)n1 | 3.41 | – |
| CS(=O)(=O)c1nccc(-c2c(-c3cccc(C(F)(F)F)c3)nc3nc(N)ccn23)n1 | 0.52 | 10 |
| Nc1ccn2c(-c3ccncn3)c(-c3ccccc3)nc2n1 | – | 73 |
| C[C@H](Nc1cc(-c2c(-c3ccc(F)cc3)nc3nc(N)ccn23)ccn1)c1ccccc1 | – | 97 |
| Nc1ccn2c(-c3ccnc4ccccc34)c(-c3ccc(F)cc3)nc2n1 | 0.333 | 26 |
| COc1nccc(-c2c(-c3ccccc3)nc3nc(N)ccn23)n1 | – | 87 |
| Nc1ccn2c(-c3ccnc(NCc4ccccc4)c3)c(-c3ccc(F)cc3)nc2n1 | – | 42 |

The next lines start with results.

| IC50 (MAPK14 (human)) [µM] | SMILES | inhibition (MAPK14 (Balb/c mice)) [%] |
| --- | --- | --- |
| 0.021 | Nc1ccn2c(-c3ccncc3)c(-c3ccc(F)c(Cl)c3)nc2n1 | 100 |
| 0.01 | CSc1nccc(-c2c(-c3cccc(F)c3)nc3nc(N)ccn23)n1 | 51 |
| 0.0004 | C[C@H](Nc1nccc(-c2c(-c3ccccc3)nc3nc(N)ccn23)n1)c1ccccc1 | 100 |
| 0.004 | Nc1ccn2c(-c3ccnc(NCc4ccccc4)c3)c(-c3cccc(C(F)(F)F)c3)nc2n1 | 19 |
| 0.008 | Nc1ccn2c(-c3ccnc(N4CCCCC4)n3)c(-c3ccccc3)nc2n1 | 63 |
| 0.049 | Nc1ccn2c(-c3ccncc3)c(-c3ccc(F)cc3)nc2n1 | 100 |
| 0.027 | CSc1nccc(-c2c(-c3cccc(C(F)(F)F)c3)nc3nc(N)ccn23)n1 | 38 |
| 0.037 | CSc1nccc(-c2c(-c3ccc(F)cc3)nc3nc(N)ccn23)n1 | 68 |
| 0.001 | C[C@H](Nc1nccc(-c2c(-c3ccc(F)cc3)nc3nc(N)ccn23)n1)C1CCCCC1 | 74 |
| 0.162 | Nc1ccn2c(-c3ccncc3)c(-c3cccc(Cl)c3)nc2n1 | 47 |
| 0.0005 | C[C@H](Nc1nccc(-c2c(-c3cccc(C(F)(F)F)c3)nc3nc(N)ccn23)n1)c1ccccc1 | 97 |
| 0.055 | Nc1ccn2c(-c3ccncc3)c(-c3cccc(F)c3)nc2n1 | 100 |
| 0.035 | Nc1ccn2c(-c3ccncc3)c(-c3cccc(C(F)(F)F)c3)nc2n1 | 99 |
| 0.055 | Nc1ccn2c(-c3ccncc3)c(-c3ccccc3)nc2n1 | 100 |
| 0.014 | COc1ccc(CNc2nccc(-c3c(-c4ccccc4)nc4nc(N)ccn34)n2)cc1 | – |
